Reference: patent publication US6472418B1, “Non-peptide NK1 receptors antagonists” (Warner-Lambert Company, priority 1998, dated 2002)

Molecular target: T1, Human NK1 Receptor (Homo sapiens, UniProt P25103)
T1 construct: endogenous in cells; host or cells: Human lymphoma IM9 cells (whole cells)
Assay: In Vitro Human NK1 Receptor Binding Assay ([125I]Bolton-Hunter substance P displacement, IM9 cells)
Settings: Human lymphoma IM9 cells, [125I]Bolton-Hunter substance P; Table 3, array-synthesis products; read-out: IC50 (nM) hNK1
Summary of the method: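 Radioligand displacement on whole IM9 human lymphoma cells (2.5×10^6 cells/mL) using [125I]Bolton-Hunter substance P (0.05-0.1 nM), 50 min at 21° C in Tris pH 7.4/MnCl2 buffer with protease inhibitors. Non-specific binding defined by […] [Sar9, Met(O2)11] substance P. Filtration, gamma counting, iterative curve fitting.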

T1 sequence (P25103 whole entry): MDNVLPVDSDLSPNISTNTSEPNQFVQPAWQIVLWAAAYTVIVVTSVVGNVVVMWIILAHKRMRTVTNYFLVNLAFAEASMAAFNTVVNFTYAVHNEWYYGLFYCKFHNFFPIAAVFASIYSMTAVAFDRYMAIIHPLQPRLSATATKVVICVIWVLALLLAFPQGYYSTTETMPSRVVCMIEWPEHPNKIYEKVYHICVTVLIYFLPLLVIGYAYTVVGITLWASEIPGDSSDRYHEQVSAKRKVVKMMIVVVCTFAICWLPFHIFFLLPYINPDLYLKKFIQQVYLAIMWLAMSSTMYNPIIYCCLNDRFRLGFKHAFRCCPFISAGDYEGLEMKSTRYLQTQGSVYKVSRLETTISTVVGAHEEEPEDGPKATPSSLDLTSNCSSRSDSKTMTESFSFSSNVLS

Compound | IC50 [nM]
O=C(NC1(CO)CCCC1)C(Cc1c[nH]c2ccccc12)NCc1cc2ccccc2o1 (stereo not drawn) [Example 211, 2-[(Benzofuran-2-ylmethyl)-amino]-N-(1-hydroxymethylcyclopentyl)-3-(1H-indol-3-yl)-propionamide] | > 10000
CC(NC(=O)C(Cc1c[nH]c2ccccc12)NCc1cc2ccccc2o1)C1CCCCC1 (stereo not drawn) [Example 241, 2-[(Benzofuran-2-ylmethyl)-amino]-N-(1-cyclohexyl-ethyl)-3-(1H-indol-3-yl)-propionamide] | 2
COc1cccc(CCNC(=O)C(Cc2c[nH]c3ccccc23)NCc2cc3ccccc3o2)c1 (stereo not drawn) [Example 291, 2-[(Benzofuran-2-ylmethyl)-amino]-3-(1H-indol-3-yl)-N-[2-(3-methoxy-phenyl)-ethyl]-propionamide] | 1340
CC(C)(NC(=O)C(Cc1c[nH]c2ccccc12)NCc1cc2ccccc2o1)C1CCCCC1 (stereo not drawn) [Example 225, 2-[(Benzofuran-2-ylmethyl)-amino]-N-(1-cyclohexyl-1-methyl-ethyl)-3-(1H-indol-3-yl)-propionamide] | 1340
O=C(NCc1ccccc1O)C(Cc1c[nH]c2ccccc12)NCc1cc2ccccc2o1 (stereo not drawn) [Example 256, 2-[(Benzofuran-2-ylmethyl)-amino]-N-(2-hydroxy-benzyl)-3-(1H-indol-3-yl)-propionamide] | > 10000
O=C(NCCc1cccs1)C(Cc1c[nH]c2ccccc12)NCc1cc2ccccc2o1 (stereo not drawn) [Example 247, 2-[(Benzofuran-2-ylmethyl)-amino]-3-(1H-indol-3-yl)-N-(2-thiophen-2-yl-ethyl)-propionamide] | 56

Same assay, conditions: Table 4; [125I]Bolton-Hunter substance P displacement, human IM9 cells; read-out: IC50 (nM) hNK1

Compound | IC50 [nM]
Toluene-4-sulfonic acid 3-{[2-(1H-indol-3-yl)-1-methyl-1-(1-phenyl-ethylcarbamoyl)-ethylamino]-methyl}-phenyl ester [compound 342] | 5090
4-{[2-(1H-Indol-3-yl)-1-methyl-1-(1-phenyl-ethylcarbamoyl)-ethylamino]-methyl}-benzoic acid methyl ester [compound 337] | 1920
COc1ccc2oc(CNC(C)(Cc3c[nH]c4ccccc34)C(=O)NC(C)c3ccccc3)cc2c1 (stereo not drawn) [compound 317, 3-(1H-Indol-3-yl)-2-[(5-methoxy-benzofuran-2-ylmethyl)-amino]-2-methyl-N-(1-phenyl-ethyl)-propionamide] | > 10000
CC(NC(=O)C(C)(Cc1c[nH]c2ccccc12)NCc1ccccc1OCc1cccnc1)c1ccccc1 (stereo not drawn) [compound 324, 3-(1H-Indol-3-yl)-2-methyl-N-(1-phenyl-ethyl)-2-[2-(pyridin-3-ylmethoxy)-benzylamino]-propionamide] | 2970

Same assay, conditions: Table 5; [125I]Bolton-Hunter substance P displacement, human IM9 cells; read-out: IC50 (nM) hNK1

Compound | IC50 [nM]
CC(NC(=O)C(Cc1c[nH]c2ccccc12)NCc1ccc(-c2ccccc2)cc1)c1ccccc1 (stereo not drawn) [compound 385] | 1460
CC(NC(=O)C(Cc1c[nH]c2ccccc12)NCC=Cc1ccc(OCc2ccccc2)cc1)c1ccccc1 (stereo not drawn) [compound 378] | 932
CC(NC(=O)C(Cc1c[nH]c2ccccc12)NCc1ccc(OCCCC(C)(C)C(=O)O)cc1)c1ccccc1 (stereo not drawn) [compound 364] | 1250
CC(NC(=O)C(Cc1c[nH]c2ccccc12)NCc1ccco1)c1ccccc1 (stereo not drawn) [compound 405] | 429

Same assay, conditions: human NK1 receptor, IM9 cells, [125I]Bolton-Hunter substance P; read-out: IC50 (nM) hNK1

Compound | IC50 [nM]
Cc1cccc(CNC(=O)C(C)(Cc2c[nH]c3ccccc23)NCc2cc3ccccc3o2)c1 (stereo not drawn) [compound 129, 2-[(Benzofuran-2-ylmethyl)-amino]-3-(1H-indol-3-yl)-2-methyl-N-(3-methyl-benzyl)-propionamide] | 43
CC(Cc1c[nH]c2ccccc12)(NCc1cc2ccccc2o1)C(=O)NCC1(O)CCCCC1 (stereo not drawn) [compound 116, 2-[(Benzofuran-2-ylmethyl)-amino]-N-(1-hydroxy-cyclohexylmethyl)-3-(1H-indol-3-yl)-2-methyl-propionamide] | > 10000
COc1cccc(CNC(=O)C(C)(Cc2c[nH]c3ccccc23)NCc2cc3ccccc3o2)c1OC (stereo not drawn) [compound 142, 2-[(Benzofuran-2-ylmethyl)-amino]-N-(2,3-dimethoxy-benzyl)-3-(1H-indol-3-yl)-2-methyl-propionamide] | 1960
CC(Cc1c[nH]c2ccccc12)(NCc1cc2ccccc2o1)C(=O)NCCc1ccccc1 (stereo not drawn) [compound 53, 2-[(Benzofuran-2-ylmethyl)-amino]-3-(1H-indol-3-yl)-2-methyl-N-phenethyl-propionamide] | 262
CC(Cc1c[nH]c2ccccc12)(NCc1cc2ccccc2o1)C(=O)NCC1CC2CCC1C2 (stereo not drawn) [compound 165, 2-[(Benzofuran-2-ylmethyl)-amino]-N-bicyclo[2.2.1]hept-2-ylmethyl-3-(1H-indol-3-yl)-2-methyl-propionamide] | > 10000
Cc1ccc(CNC(=O)C(C)(Cc2c[nH]c3ccccc23)NCc2cc3ccccc3o2)cc1 (stereo not drawn) [compound 71, 2-[(Benzofuran-2-ylmethyl)-amino]-3-(1H-indol-3-yl)-2-methyl-N-(4-methyl-benzyl)-propionamide] | 144
CC(C)NC(=O)C(C)(Cc1c[nH]c2ccccc12)NCc1cc2ccccc2o1 (stereo not drawn) [compound 92, 2-[(Benzofuran-2-ylmethyl)-amino]-3-(1H-indol-3-yl)-N-isopropyl-2-methyl-propionamide] | 2290
CC1(CNC(=O)C(C)(Cc2c[nH]c3ccccc23)NCc2cc3ccccc3o2)OCCO1 (stereo not drawn) [compound 126, 2-[(Benzofuran-2-ylmethyl)-amino]-3-(1H-indol-3-yl)-2-methyl-N-(2-methyl-[1,3]dioxolan-2-ylmethyl)-propionamide] | 6790
CC(Cc1c[nH]c2ccccc12)(NCc1cc2ccccc2o1)C(=O)NC1CCc2ccccc21 (stereo not drawn) [compound 130, 2-[(Benzofuran-2-ylmethyl)-amino]-N-indan-1-yl-3-(1H-indol-3-yl)-2-methyl-propionamide] | 163
CC(Cc1c[nH]c2ccccc12)(NCc1cc2ccccc2o1)C(=O)NCc1cccs1 (stereo not drawn) [compound 137, 2-[(Benzofuran-2-ylmethyl)-amino]-3-(1H-indol-3-yl)-2-methyl-N-thiophen-2-ylmethyl-propionamide] | 100
CC(Cc1c[nH]c2ccccc12)(NCc1cc2ccccc2o1)C(=O)NCCN1CCNCC1 (stereo not drawn) [compound 147, 2-[(Benzofuran-2-ylmethyl)-amino]-3-(1H-indol-3-yl)-2-methyl-N-(2-piperazin-1-yl-ethyl)-propionamide] | > 10000
CC(Cc1c[nH]c2ccccc12)(NCc1cc2ccccc2o1)C(=O)NCC(c1ccccc1)c1ccccn1 (stereo not drawn) [compound 80, 2-[(Benzofuran-2-ylmethyl)-amino]-3-(1H-indol-3-yl)-2-methyl-N-(2-phenyl-2-pyridin-2-yl-ethyl)-propionamide] | > 10000
CC(Cc1c[nH]c2ccccc12)(NCc1cc2ccccc2o1)C(=O)NCc1cc(Cl)sc1Cl (stereo not drawn) [compound 109, 2-[(Benzofuran-2-ylmethyl)-amino]-N-(2,5-dichloro-thiophen-3-ymethyl)-3-(1H-indol-3-yl)-2-methyl-propionamide] | 279
CC(Cc1c[nH]c2ccccc12)(NCc1cc2ccccc2o1)C(=O)NCCc1ccco1 (stereo not drawn) [compound 115, 2-[(Benzofuran-2-ylmethyl)-amino]-N-(2-furan-2-yl-ethyl)-3-(1H-indol-3-yl)-2-methyl-propionamide] | 154
CC(Cc1c[nH]c2ccccc12)(NCc1cc2ccccc2o1)C(=O)NC(CO)Cc1c[nH]cn1 (stereo not drawn) [compound 183, 2-[(Benzofuran-2-ylmethyl)-amino]-N-[1-hydroxymethyl-2-(1H-imidazol-4-yl)-ethyl]-3-(1H-indol-3-yl)-2-methyl-propionamide] | > 10000
CC(Cc1c[nH]c2ccccc12)(NCc1cc2ccccc2o1)C(=O)NCc1ccncc1 (stereo not drawn) [compound 25, 2-[(Benzofuran-2-ylmethyl)-amino]-3-(1H-indol-3-yl)-2-methyl-N-pyridin-4-ylmethyl-propionamide] | 131
CC(Cc1c[nH]c2ccccc12)(NCc1cc2ccccc2o1)C(=O)NCC1(c2cccnc2)CCC1 (stereo not drawn) [compound 159, 2-[(Benzofuran-2-ylmethyl)-amino]-3-(1H-indol-3-yl)-2-methyl-N-(1-pyridin-3-yl-cyclobutylmethyl)-propionamide] | 3760
CC(Cc1c[nH]c2ccccc12)(NCc1cc2ccccc2o1)C(=O)NCc1ccc(Cl)cc1F (stereo not drawn) [compound 177, 2-[(Benzofuran-2-ylmethyl)-amino]-N-(4-chloro-2-fluoro-benzyl)-3-(1H-indol-3-yl)-2-methyl-propionamide] | 444
CC(Cc1c[nH]c2ccccc12)(NCc1cc2ccccc2o1)C(=O)NCC(=O)N1CCOCC1 (stereo not drawn) [compound 173, 2-[(Benzofuran-2-ylmethyl)-amino]-3-(1H-indol-3-yl)-2-methyl-N-(2-morpholin-4-yl-2-oxo-ethyl)-propionamide] | > 10000
CC(Cc1c[nH]c2ccccc12)(NCc1cc2ccccc2o1)C(=O)NC1CCCc2ccccc21 (stereo not drawn) [compound 148, 2-[(Benzofuran-2-ylmethyl)-amino]-3-(1H-indol-3-yl)-2-methyl-N-(1,2,3,4-tetrahydro-naphthalen-1-yl)-propionamide] | > 10000
CC(Cc1c[nH]c2ccccc12)(NCc1cc2ccccc2o1)C(=O)NCCCN1CCN(c2ccccn2)CC1 (stereo not drawn) [compound 87, 2-[(Benzofuran-2-ylmethyl)-amino]-3-(1H-indol-3-yl)-2-methyl-N-[3-(4-pyridin-2-yl-piperazin-1-yl)-propyl]-propionamide] | > 10000
CC(Cc1c[nH]c2ccccc12)(NCc1cc2ccccc2o1)C(=O)NCc1ncc(C(=O)O)c(O)n1 (stereo not drawn) [compound 43, 2-{[2-[(Benzofuran-2-ylmethyl)-amino]-3-(1H-indol-3-yl)-2-methyl-propionylamino]-methyl}-4-hydroxy-pyrimidine-5-carboxylic acid] | 3610
